The values that follow come from patent US20120107861A1, “METHOD OF DETERMINING RISK OF ARRHYTHMIA” (priority 2010, published 2012).

Broadly, the Cmax is the maximum level reached in the sampled fluid or tissue.

For one series, the system named is QT interval. The conditions noted are these: in patients / in vivo; cited from earlier work.
Series [1] has as its system human iPSC-derived cardiomyocytes (iCells). How it is done:
Cell Culture. hiPSC-derived cardiomyocytes (iCells) from Cellular Dynamics International (CDT) were thawed in Plating Media (CDI and plated as single cells onto 0.1% Gelatin (Sigma)-coated, 6-well tissue-culture plates (Corning) at a density of 2.2−2.7×10^6 cells per well. Cells were cultured for 3-5 d at 37° C., 7% CO2 prior to re-plating onto xCELLigence® 96-well cardio e-plates (ACEA/Roche Applied Sciences) or microelectrode arrays (MEAs, Multichannel Systems). The media was changed every 2 d after plating using Maintenance Media (CDI), pre-warmed to 37° C. to minimize the temperature shock on cells.
xCELLigence® cardio e-plates and MEA Re-plating. iCells cultured in 6-well plates were harvested by twice washing in dPBS (GIBCO) then lifted with 0.5% Trypsin-EDTA (GIBCO), incubated at 37° C., 7% CO2. Trypsin was quenched with Maintenance Media and cells were collectively centrifuged at 69 g for 5 minutes and resuspended in Maintenance Media to yield the target density. For cardio e-plate reseeding, cells were plated at a target density of 5×10^4 per well, estimating 80% seeding efficiency. Cardio e-plates were coated with 0.1% Gelatin for 3 h at 37° C. Background impedance measurements for cardio e-plates were made with the final volume of media equilibrated to 37° C. but without cells, immediately prior to reseeding the cells. The cells were monitored every 1 h by a 20 s sweep duration by the xCELLigence® RTCA cardio system at its maximum sampling rate (77 Hz) prior to initiating experimentation.
xCELLigence® and MEA Experimentation. Compound stocks were prepared in DMSO or dH2O at 1000 fold the highest tested concentration. For xCELLigence® experimentation, compound stocks were serially diluted in Maintenance Media in a separate 96-well tissue culture plate (Corning) at twice the target concentration. The dilution plate was incubated and equilibrated to 37° C. prior to cell exposure. […] All compounds were tested as n≧3 on multiple cardio e-plates. The xCELLigence® monitored changes to the beating for periodic 20 s sweep durations at 77 Hz.
Data Analysis. Data were first analyzed by the built-in analysis modules of xCELLigence® and MEAs systems, initial results were then exported into in-house developed Microsoft Excel templates for further semi-auto analysis. […] To calculate the “Predicted Proarrhythmic Score” (PPS), we first determined a “Irregular Beat Ratio” (IBR). The IBR was defined as the ratio of arrhythmic beat counts to the total number of beats over one minute. IBR values for each concentration at each selected time-point was averaged from 3 to 5 e-plates. The lowest concentration of drug, that generated a IBR value ≧0.2 was determined and termed “IB20.” Finally, the maximal therapeutic plasma concentration (Cmax) was divided by the IB20 to arrive at the PPS. A PPS >100 is a level of concern for drug-induced arrhythmia. […]

The conditions of series [2]: maximum therapeutic plasma concentration, cited from earlier work.
A further series relates to TdP. Conditions: clinical; cited from earlier work.
The target in the next series is hERG channel (Homo sapiens, UniProt Q12809). The conditions noted are these: cited from earlier work.

SMILES strings stand for the structures. Read-outs that look alike come from different tables or passages of the source.

Chain of hERG channel (Q12809 whole entry): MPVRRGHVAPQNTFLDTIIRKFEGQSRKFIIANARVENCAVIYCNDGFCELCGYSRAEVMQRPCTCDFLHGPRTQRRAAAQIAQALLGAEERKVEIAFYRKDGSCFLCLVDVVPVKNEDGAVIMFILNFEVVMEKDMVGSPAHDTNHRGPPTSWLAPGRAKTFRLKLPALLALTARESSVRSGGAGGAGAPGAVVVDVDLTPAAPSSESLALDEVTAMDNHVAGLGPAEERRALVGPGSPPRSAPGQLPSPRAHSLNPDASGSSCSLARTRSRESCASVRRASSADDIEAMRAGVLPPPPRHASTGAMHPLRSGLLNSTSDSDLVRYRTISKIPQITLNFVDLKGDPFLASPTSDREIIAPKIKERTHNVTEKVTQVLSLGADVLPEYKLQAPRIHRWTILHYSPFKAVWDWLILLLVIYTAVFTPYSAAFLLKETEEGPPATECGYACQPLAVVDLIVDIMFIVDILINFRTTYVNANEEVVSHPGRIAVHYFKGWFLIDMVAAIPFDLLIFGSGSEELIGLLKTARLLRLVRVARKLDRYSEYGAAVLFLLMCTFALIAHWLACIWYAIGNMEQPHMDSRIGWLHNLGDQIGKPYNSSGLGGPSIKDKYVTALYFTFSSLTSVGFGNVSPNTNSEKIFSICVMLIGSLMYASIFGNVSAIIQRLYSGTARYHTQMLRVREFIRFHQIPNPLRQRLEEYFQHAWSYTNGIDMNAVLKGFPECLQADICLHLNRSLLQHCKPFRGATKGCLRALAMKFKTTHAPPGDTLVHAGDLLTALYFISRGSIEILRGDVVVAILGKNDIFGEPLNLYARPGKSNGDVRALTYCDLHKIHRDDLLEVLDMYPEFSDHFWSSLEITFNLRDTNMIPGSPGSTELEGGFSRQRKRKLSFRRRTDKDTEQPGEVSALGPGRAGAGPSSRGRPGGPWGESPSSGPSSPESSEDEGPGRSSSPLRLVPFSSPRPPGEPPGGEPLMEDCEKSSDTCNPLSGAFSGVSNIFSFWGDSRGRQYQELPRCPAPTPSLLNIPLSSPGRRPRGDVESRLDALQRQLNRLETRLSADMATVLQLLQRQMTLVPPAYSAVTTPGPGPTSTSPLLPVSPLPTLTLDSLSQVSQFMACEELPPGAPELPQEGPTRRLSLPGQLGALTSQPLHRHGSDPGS

For `COc1ccccc1OCC(O)CN1CCN(CC(=O)Nc2c(C)cccc2C)CC1` (stereo not drawn) [Ranolazine], the “QT prolongation” value in the series on QT interval was “induce QT prolongation”. Also, the “alterations in beat patterns / arrhythmic beats” value in series [1] was “not torsadogenic”. Also, the Cmax in series [2] (Table I) and in series [2] (Table II) was 6.01 µM each time. Besides, the “TdP liability” value in the series on TdP is “free of TdP”. The “hERG inhibition” value at hERG channel is “inhibit hERG”.
